Measurements as given in patent publication US9434701B2, “Aminoquinoxaline derivatives for treatment of neurodegenerative diseases” (CENTRE NATIONAL DE LA RECHERCHE SCIENTIFIQUE (CNRS), priority 2011, dated 2016).

Tests used:
[1] = test system: dopaminergic neurons (TH+) of rat embryo ventral midbrain culture; test: dopaminergic neuron spontaneous degeneration model in culture, TH+ neuron count after 8 days (Schmidt et al. protocol); type: cell-based
Protocol: Quinoxaline derivatives were tested on a dopaminergic neuron spontaneous degeneration model in culture according to the protocol described in the article by F. Schmidt et al. […] This model consists of culturing rat embryo ventral midbrain. This part of the brain in culture contains a proportion of dopaminergic neurons of 5% of the total neurons; the other neurons are mainly GABAergic. These cultures are also composed of glial cells, i.e., astrocytes, oligodendrocytes and microglia. These cultures are characterized by progressive neuron death.

[2] = influence of time before euthanasia, IP route: brain extract and plasma concentration; type: in vivo, C57BL\6J mice; conditions: IP 70 mg/kg
Protocol: This study was done on C57BL\6J (instead of RjOrl:SWISS) mice treated with compound 4bc by IP or per os.
IP Route • Mice treated by IP route received a treatment of 70 mg/kg to […] of a solution of compound 4bc over 2 days comprising 2 IP injections the first day and 1 IP injection the second day.

[3] = IP study in rats: brain extract and plasma concentration; type: in vivo
Protocol: The kinetics in mouse brain and plasma of compound 4bc after IP administration are also shown in FIG. 8. • Another study was done in rats treated by IP. These rats received a treatment of 20 or 45 mg/kg at 10 mL/kg of a solution of compound 4bc over 2 days comprising 2 IP injections the first day and 1 IP injection the second day.

[4] = test system: dopaminergic fibers in the striatum and dopaminergic neurons in the substantia nigra; test: neuroprotection in mice lesioned by intranasal MPTP (animal model of Parkinson's disease), TH immunohistochemistry; type: in vivo; conditions: oral 150 mg/kg twice daily 2 days then 75 mg/kg once daily
Source text: The goal of this study is to test by an […] study the neuroprotective activity of compound 4bc administered orally to a mouse after it is poisoned by intranasal administration of MPTP. The food intake and weight of the animals were also compared to a control group. The densitometric analysis of striatal fibers and count of dopaminergic cell bodies in the substantia nigra, after immunohistochemical marking of tyrosine hydroxylase enabled quantifying the neuroprotective effect of the compound.
30 male C57BL\6J mice aged 3 months (supplier: Janvier Breeding Center) were used during this study.
Compound 4bc was administered orally at a dose of 150 mg/kg to 10 mL/kg, twice daily for two days, and then 75 mg/kg once daily. The carrier was composed of 0.5% Tween 80+99.5% carboxymethylcellulose (at 1% in water). A curved rigid tube connected to a 1 mL Terumo syringe was used for administration.
MPTP, a toxin specific for dopaminergic neurons was administered intranasally. One mg (10 μl) of MPTP/HCl (Sigma) dissolved in a 0.9% NaCl solution was delivered per nostril with a 3-minute interval between the two nostrils. […]
To quantify the neuroprotective capacity of compound 4bc, an immunohistochemistry study was done on floating brain slices. Two brain anatomic structures were analyzed: the striatum (20 μm slices, 10 levels) and the substantia nigra (20 μm slices, 7 levels). […]

[5] = IP 20 mg/kg at 10 mL/kg, approximately 3 h

Question: For `Cc1nc2ccc(N)cc2nc1-c1ccccc1` [Compound 4bc], which “activity on survival of dopaminergic neurons (in words)” value ([1]; 100 nM, compared with dbcAMP) is on record?
Answer: nearly equal to the one induced by dbcAMP

Question: And the activity at 0.1 µM ([1]; Rattus norvegicus, Neuron, 192 h, compound at 100 nM, 8 days of culture, read-out: TH+ neurons in % of control ± SEM)?
Answer: 140%

Question: What about the concentration at 1 h ([2]; C57BL\6J, mouse, brain extract, 3 injections over 2 days, euthanasia approximately 1 h after last treatment) of the same compound?
Answer: 1000 ng/mL

Question: And the Brain extract concentration ([2]; 3 injections over 2 days, euthanasia approximately 1 h after last treatment)?
Answer: 1 µg/mL

Question: What about the Plasma concentration ([2]; approximately 1 h) of the same compound?
Answer: 1200 ng/mL

Question: And the Brain extract concentration ([2]; approximately 1 h 30 min)?
Answer: 0.74 µg/mL

Question: What about the Plasma concentration ([2]; approximately 1 h 30 min) of the same compound?
Answer: 3100 ng/mL

Question: And the Brain extract concentration ([2]; approximately 1 h 55 min)?
Answer: 0.1 µg/mL

Question: What about the Plasma concentration ([2]; approximately 1 h 55 min) of the same compound?
Answer: 1700 ng/mL

Question: What about the Brain extract concentration ([2]; approximately 2 h 20 min) of the same compound?
Answer: 0.09 µg/mL

Question: What about the Brain extract concentration [3, 5] of the same compound?
Answer: 0.1 µg/mL

Question: What about the Plasma concentration [3, 5] of the same compound?
Answer: 400 ng/mL

Question: And the Brain extract concentration ([3]; IP 45 mg/kg at 10 mL/kg, approximately 1 h)?
Answer: 5.1 µg/mL

Question: And the “neuroprotective activity on dopaminergic fibers in vivo (FIGS. 9 and 10)” value ([4]; intranasal MPTP, Mann-Whitney test)?
Answer: significant neuroprotective activity

Question: And the “mild toxicity in animals who received only the compound (T/NL)” value ([4]; not lesioned)?
Answer: not significant
